Results as given in patent US20120010075A1 (priority 2009, published 2012).
Read-outs that look alike come from different tables or passages of the source.

What was measured:
[1] = system: Leptosphaeria nodorum (LEPTNO); experiment: In vitro fungitoxicity of hydrazones with and without copper towards Leptosphaeria nodorum (Example 26); type: cell-based; settings: 72 h at 25° C.; for inhibition of growth at 0.05 µg/mL: Parastagonospora nodorum, 72 h, read-out: LEPTNO % Inhn. Minus Copper Observed; for inhibition of growth at 0.05 µg/mL / LEPTNO % Inhn. Minus Copper Observed: copper-minus medium
Phytophthora infestans = type: in vivo, Phytophthora infestans on tomato; settings: applied 24 h before inoculation, assessed 7 days after inoculation
[2] = test compound Concn. 0.05 μg/mL
[3] = copper-plus medium (CuCl2 10 μM), test compound Concn. 0.05 μg/mL
[4] = hydrazone 50 ppm with 50 μM CuCl2.2H2O, tomato late blight
[5] = compound 0.05 μg/mL, copper-plus medium (CuCl2.2H2O)
[6] = hydrazone 50 ppm + 50 μM CuCl2.2H2O, tomato

Row | Compound | inhibition of growth at 0.05 µg/mL [1, 2] [%] | LEPTNO % Inhn. Plus Copper Observed [1, 3] [%] | melting point [°C] | TLB % Control (Phytophthora infestans; [4]) [%] | LEPTNO % Inhn. Minus Copper Observed ([1]; compound 0.05 μg/mL) [%] | LEPTNO % Inhn. Plus Copper Observed [1, 5] [%] | TLB % Control (Phytophthora infestans; [6]) [%] | inhibition of growth at 0.05 µg/mL ([1]; compound 0.05 μg/mL) [%]
1 | C/C(=N\NC(=O)c1ccc(C)cc1)c1cc(Cl)ccc1O [Example 507] | 7.6 | 97.0 | 221 to 228 | 66.0 | – | – | – | –
2 | C/C(=N\NC(=O)c1ccc(C(F)(F)F)cc1)c1cc(Cl)ccc1O [Example 513] | 14 | 98.0 | 271 to 273 | 53.0 | – | – | – | –
3 | O=C(N/N=C/c1cc(Br)cc(F)c1O)c1ccccc1O [Example 409] | 7.9 | 96.3 | 297 to 299 | 98.0 | – | – | – | –
4 | O=C(N/N=C/c1cc(Cl)cc(C(F)(F)F)c1O)c1cccc(F)c1 [Example 378] | 26.3 | 98.4 | 219 to 221 | 97.0 | – | – | – | –
5 | CC(C)c1ccc(C(=O)N/N=C/c2cc(Cl)cc(Cl)c2O)cc1 [Example 41] | – | – | 261 to 263 | – | 0.0 | 97.2 | 87.0 | –
6 | O=C(N/N=C/c1cc(Br)cc(Br)c1O)c1cc(Cl)cc(Cl)c1 [Example 117] | – | – | 267 to 269 | – | – | 98.5 | 89.5 | 28.8
7 | COc1ccc(C(=O)N/N=C(\C)c2cccc(OC)c2O)cc1 [Example 464] | 6.7 | 94.8 | 140 to 141 | 93.0 | – | – | – | –
8 | Cc1ccc(C(=O)N/N=C/c2cccc(Cl)c2O)cc1 [Example 424] | 22.3 | 97.0 | 230 to 232 | 100.0 | – | – | – | –
9 | O=C(N/N=C/c1cc(C(F)(F)F)cc(C(F)(F)F)c1O)c1ccccc1C(F)(F)F [Example 341] | 1.2 | 88.9 | 210 to 214 | 63.0 | – | – | – | –
10 | Cc1ccc(C(=O)N/N=C/c2c(O)cccc2Cl)cc1 [Example 399] | 5.8 | 97.1 | 250 to 252 | 88.0 | – | – | – | –
11 | COc1ccc(C(=O)N/N=C(\C)c2cc(Br)ccc2O)cc1 [Example 516] | 0 | 97.9 | 202 to 252 | 59.0 | – | – | – | –
12 | C/C(=N\NC(=O)c1ccccc1)c1cc(F)cc(F)c1O [Example 572] | 2.5 | 97.4 | 222 to 225 | 94.0 | – | – | – | –
13 | Cc1cccc(C(=O)N/N=C/c2cc(C(F)(F)F)cc(C(F)(F)F)c2O)c1 [Example 332] | 2 | 93.9 | 210 to 213 | 89.0 | – | – | – | –
14 | O=C(N/N=C/c1c(C(F)(F)F)ccc(Cl)c1O)c1ccc(F)cc1 [Example 450] | 1.1 | 93.5 | 231 to 233 | 100.0 | – | – | – | –
15 | O=C(N/N=C/c1ccc(Cl)c(Cl)c1O)c1ccccc1O [Example 362] | 11.1 | 97.2 | 280 to 282 | 97.0 | – | – | – | –
16 | O=C(N/N=C/c1c(O)cccc1Cl)c1cccc(F)c1 [Example 400] | 0.5 | 97.9 | 257 to 259 | 96.0 | – | – | – | –
17 | COc1ccc(/C(C)=N/NC(=O)c2cccc(C)c2)c(O)c1OC [Example 553] | 0 | 93.2 | 158 to 162 | 88.0 | – | – | – | –
18 | C/C(=N\NC(=O)c1ccccc1Cl)c1cccc(Cl)c1O [Example 496] | 0.7 | 97.8 | 189 to 193 | 94.0 | – | – | – | –
19 | Cc1cc(C)cc(C(=O)N/N=C/c2ccccc2O)c1 [Example 167] | – | – | 203 to 205 | – | – | 95.8 | 67.3 | 0
20 | O=C(N/N=C/c1cc(Br)cc(Br)c1O)c1ccc2ccccc2c1 [Example 111] | – | – | 237 to 239 | – | – | 97.4 | 63.6 | 16.8

Row | Compound | inhibition of growth at 0.05 µg/mL [1, 2] [%] | LEPTNO % Inhn. Plus Copper Observed [1, 3] [%] | melting point [°C] | TLB % Control (Phytophthora infestans; [4]) [%] | LEPTNO % Inhn. Minus Copper Observed ([1]; compound 0.05 μg/mL) [%] | LEPTNO % Inhn. Plus Copper Observed [1, 5] [%] | TLB % Control (Phytophthora infestans; [6]) [%] | inhibition of growth at 0.05 µg/mL ([1]; compound 0.05 μg/mL) [%]
21 | Cc1cccc(C(=O)N/N=C/c2cc(C(F)(F)F)cc(Cl)c2O)c1 [Example 321] | 11.7 | 96.6 | 204 to 206 | 100.0 | – | – | – | –
22 | C/C(=N\NC(=O)c1ccc(Br)cc1)c1cc(Br)cc(Br)c1O [Example 547] | 10.8 | 97.7 | 264 to 266 | 88.0 | – | – | – | –
23 | COc1cc(Br)cc(/C=N/NC(=O)c2cc(C)cc(C)c2)c1O [Example 209] | – | – | 189 to 193 | – | – | 95.9 | 67.3 | 17.6
24 | COc1cccc(C(=O)N/N=C/c2cc(Br)ccc2O)c1C [Example 105] | – | – | 199 to 201 | – | – | 95.2 | 74.6 | 5.8
25 | C/C(=N\NC(=O)c1cccc(Cl)c1)c1cc(F)cc(F)c1O [Example 577] | 1.9 | 97.9 | 279 to 282 | 100.0 | – | – | – | –
26 | Cc1ccc(C(=O)N/N=C/c2c(C(F)(F)F)ccc(Cl)c2O)cc1 [Example 448] | 27.1 | 97.5 | 216 to 218 | 100.0 | – | – | – | –
27 | O=C(N/N=C/c1cccc(Cl)c1O)c1cccc([N+](=O)[O-])c1 [Example 429] | 10.4 | 97.4 | 236 to 239 | 94.0 | – | – | – | –
28 | C/C(=N\NC(=O)c1cccc(C)c1)c1cccc([N+](=O)[O-])c1O [Example 270] | – | – | 235 to 239 | – | – | 98.6 | 61.0 | 6.9
29 | C/C(=N\NC(=O)c1cccc(C)c1O)c1cc(Cl)cc(Cl)c1O [Example 565] | 12.2 | 97.4 | 278 to 279 | 98.0 | – | – | – | –
30 | CCOc1ccc(C(=O)N/N=C/c2cc(Cl)cc(Cl)c2O)cc1 [Example 97] | – | – | 279 to 281 | – | – | 98.3 | 76.3 | 18.2
31 | N#Cc1ccc(C(=O)N/N=C/c2cc(Cl)cc(Cl)c2O)cc1 [Example 310] | 2.4 | 96.6 | 234 to 270 | 64.0 | – | – | – | –
32 | CC(C)c1ccc(C(=O)N/N=C/c2cc(Cl)cc(Cl)c2O)cc1 [Example 42] | – | – | 270 to 272 | – | 9.2 | 93.2 | 60.0 | –
33 | COc1ccc(/C(C)=N/NC(=O)c2ccc(C)cc2)c(O)c1OC [Example 554] | 0 | 97.3 | 245 to 249 | 100.0 | – | – | – | –
34 | C/C(=N\NC(=O)c1ccccc1Cl)c1cc(Br)ccc1O [Example 291] | – | – | 198 to 201 | – | – | 95.4 | 67.0 | 2.2
35 | O=C(N/N=C/c1cc(C(F)(F)F)cc(C(F)(F)F)c1O)c1ccc([N+](=O)[O-])cc1 [Example 339] | 1.5 | 95.4 | 244 to 247 | 100.0 | – | – | – | –
36 | C/C(=N\NC(=O)c1ccccc1Br)c1cccc([N+](=O)[O-])c1O [Example 524] | 9.3 | 95.8 | 186 to 188 | 39.0 | – | – | – | –
37 | Cc1ccc(C(=O)N/N=C(\CCc2ccccc2)c2ccccc2O)c(C)c1 [Example 31] | – | – | 143 to 145 | – | – | 89.0 | 33.3 | 2.2
38 | C/C(=N\NC(=O)c1ccccc1O)c1cc(Br)ccc1O [Example 520] | 14.9 | 96.7 | 281 to 303 | 49.0 | – | – | – | –
39 | CC/C(=N\NC(=O)c1cccc(Oc2ccccc2)c1)c1ccccc1O [Example 44] | – | – | 148 to 163 | – | – | 93.0 | 0.7 | 0.3
40 | Cc1ccc(C(=O)N/N=C/c2cc(Cl)cc(Br)c2O)cc1 [Example 413] | 18.9 | 97.9 | 279 to 282 | 94.0 | – | – | – | –
